# Measured values reported in the supplement of paper PMC8671470.
# Tested on: BV-173
# Test: cell viability (% survival relative to DMSO control, bortezomib = 0%); higher = less cytotoxic
# Conditions: 10 nM; 72 h
# Outline: (§1)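 Seeding density for each of the 10 AML and 5 CML cell lines was titrated to the linear growth range. Cells went into 384-well plates pre-printed in duplicate with compounds at 1, 10, 100, 1000 or 10000 nM and were held for 72 h at 37 °C with 5% CO2. CellTiter-Glo luminescence then provided the readout. Percent survival is expressed relative to vehicle at 100% and a 10 µM positive control at 0%, averaged over duplicates.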
row,SMILES,cell viability [%]
1,CN(C)CCNC(=O)c1cccn2c(=O)c3cc4ccccc4cc3nc12 [Bmh-21],98.6

# Same assay, conditions: 100 nM; 72 h
row,SMILES,cell viability [%]
1,O=C(c1c2ccccc2cc2ccccc12)N1CCC(N2CCC[C@@H](C(=O)N3CCOCC3)C2)CC1,118
2,c1ccc2c(c1)SCc1c-2[nH]c2ccccc12,114
3,CCC(CC#N)OC(=O)N[C@@H](C)c1cccc(NC(=O)Nc2ccc(-c3cnco3)c(OC)c2)c1 (stereo in doubt) [AVN-944],50.8
4,Oc1ncc(F)c(O)n1 [5-fluorouracil],85.6
5,CN(C)CCNC(=O)c1cccn2c(=O)c3cc4ccccc4cc3nc12 [Bmh-21],95.8

# Same assay, conditions: 1000 nM; 72 h
row,SMILES,cell viability [%]
1,O=C(c1c2ccccc2cc2ccccc12)N1CCC(N2CCC[C@@H](C(=O)N3CCOCC3)C2)CC1,86.5
2,c1ccc2c(c1)SCc1c-2[nH]c2ccccc12,27.6
3,CCC(CC#N)OC(=O)N[C@@H](C)c1cccc(NC(=O)Nc2ccc(-c3cnco3)c(OC)c2)c1 (stereo in doubt) [AVN-944],-0.621
4,Oc1ncc(F)c(O)n1 [5-fluorouracil],86.4
5,CN(C)CCNC(=O)c1cccn2c(=O)c3cc4ccccc4cc3nc12 [Bmh-21],-0.204

# Same assay, conditions: 10000 nM; 72 h
row,SMILES,cell viability [%]
1,O=C(c1c2ccccc2cc2ccccc12)N1CCC(N2CCC[C@@H](C(=O)N3CCOCC3)C2)CC1,70.9
2,c1ccc2c(c1)SCc1c-2[nH]c2ccccc12,-0.875
3,CCC(CC#N)OC(=O)N[C@@H](C)c1cccc(NC(=O)Nc2ccc(-c3cnco3)c(OC)c2)c1 (stereo in doubt) [AVN-944],-0.6
4,Oc1ncc(F)c(O)n1 [5-fluorouracil],16.3
5,CN(C)CCNC(=O)c1cccn2c(=O)c3cc4ccccc4cc3nc12 [Bmh-21],-0.415

# Tested on: HL-60
# Test: as above
# Conditions: 1 nM; 72 h
# Outline: as §1
row,SMILES,cell viability [%]
1,O=C(c1c2ccccc2cc2ccccc12)N1CCC(N2CCC[C@@H](C(=O)N3CCOCC3)C2)CC1,104
2,c1ccc2c(c1)SCc1c-2[nH]c2ccccc12,100
3,CCC(CC#N)OC(=O)N[C@@H](C)c1cccc(NC(=O)Nc2ccc(-c3cnco3)c(OC)c2)c1 (stereo in doubt) [AVN-944],94.9
4,Oc1ncc(F)c(O)n1 [5-fluorouracil],113
5,CN(C)CCNC(=O)c1cccn2c(=O)c3cc4ccccc4cc3nc12 [Bmh-21],102

# Same assay, conditions: 10 nM; 72 h
row,SMILES,cell viability [%]
1,O=C(c1c2ccccc2cc2ccccc12)N1CCC(N2CCC[C@@H](C(=O)N3CCOCC3)C2)CC1,69.9
2,c1ccc2c(c1)SCc1c-2[nH]c2ccccc12,95.7
3,CCC(CC#N)OC(=O)N[C@@H](C)c1cccc(NC(=O)Nc2ccc(-c3cnco3)c(OC)c2)c1 (stereo in doubt) [AVN-944],85.7
4,Oc1ncc(F)c(O)n1 [5-fluorouracil],120
5,CN(C)CCNC(=O)c1cccn2c(=O)c3cc4ccccc4cc3nc12 [Bmh-21],108

# Same assay, conditions: 100 nM; 72 h
row,SMILES,cell viability [%]
1,O=C(c1c2ccccc2cc2ccccc12)N1CCC(N2CCC[C@@H](C(=O)N3CCOCC3)C2)CC1,118
2,c1ccc2c(c1)SCc1c-2[nH]c2ccccc12,102
3,CCC(CC#N)OC(=O)N[C@@H](C)c1cccc(NC(=O)Nc2ccc(-c3cnco3)c(OC)c2)c1 (stereo in doubt) [AVN-944],61.6
4,Oc1ncc(F)c(O)n1 [5-fluorouracil],138
5,CN(C)CCNC(=O)c1cccn2c(=O)c3cc4ccccc4cc3nc12 [Bmh-21],93.6

# Same assay, conditions: 1000 nM; 72 h
row,SMILES,cell viability [%]
1,O=C(c1c2ccccc2cc2ccccc12)N1CCC(N2CCC[C@@H](C(=O)N3CCOCC3)C2)CC1,59.2
2,c1ccc2c(c1)SCc1c-2[nH]c2ccccc12,83
3,CCC(CC#N)OC(=O)N[C@@H](C)c1cccc(NC(=O)Nc2ccc(-c3cnco3)c(OC)c2)c1 (stereo in doubt) [AVN-944],12.6
4,Oc1ncc(F)c(O)n1 [5-fluorouracil],61.2
5,CN(C)CCNC(=O)c1cccn2c(=O)c3cc4ccccc4cc3nc12 [Bmh-21],107

# Same assay, conditions: 10000 nM; 72 h
row,SMILES,cell viability [%]
1,O=C(c1c2ccccc2cc2ccccc12)N1CCC(N2CCC[C@@H](C(=O)N3CCOCC3)C2)CC1,41.5
2,c1ccc2c(c1)SCc1c-2[nH]c2ccccc12,23.4
3,CCC(CC#N)OC(=O)N[C@@H](C)c1cccc(NC(=O)Nc2ccc(-c3cnco3)c(OC)c2)c1 (stereo in doubt) [AVN-944],1.98
4,Oc1ncc(F)c(O)n1 [5-fluorouracil],27.1
5,CN(C)CCNC(=O)c1cccn2c(=O)c3cc4ccccc4cc3nc12 [Bmh-21],77.7

# Tested on: myeloid leukemia patient primary cells Pat.14
# Test: cell viability (% survival relative to DMSO control); higher = less cytotoxic
# Conditions: 1 nM; 72 h
# Outline: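 Thawed mononuclear cells from AML or CML patients were purified on Ficoll and cultured for 72 h in RPMI 1640 with 10% FBS, at 10,000 cells/well, on 384-well plates carrying 70 pre-printed compounds at 1–10,000 nM in five tenfold steps, in duplicate. Viability came from CellTiter-Glo, normalised against DMSO and against 10 μM proteasome inhibitor. Any area under the curve given was derived from log-logistic curve fits in the drc and PharmacoGx R packages, and these fits had four parameters.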
row,SMILES,cell viability [%]
1,O=C(c1c2ccccc2cc2ccccc12)N1CCC(N2CCC[C@@H](C(=O)N3CCOCC3)C2)CC1,88.9
2,c1ccc2c(c1)SCc1c-2[nH]c2ccccc12,95.4
3,CCC(CC#N)OC(=O)N[C@@H](C)c1cccc(NC(=O)Nc2ccc(-c3cnco3)c(OC)c2)c1 (stereo in doubt) [AVN-944],88.2
4,Oc1ncc(F)c(O)n1 [5-fluorouracil],94.6
5,CN(C)CCNC(=O)c1cccn2c(=O)c3cc4ccccc4cc3nc12 [Bmh-21],87.3

# Same assay, conditions: 10 nM; 72 h
row,SMILES,cell viability [%]
1,O=C(c1c2ccccc2cc2ccccc12)N1CCC(N2CCC[C@@H](C(=O)N3CCOCC3)C2)CC1,98.9
2,c1ccc2c(c1)SCc1c-2[nH]c2ccccc12,54.1
3,CCC(CC#N)OC(=O)N[C@@H](C)c1cccc(NC(=O)Nc2ccc(-c3cnco3)c(OC)c2)c1 (stereo in doubt) [AVN-944],97.5
4,Oc1ncc(F)c(O)n1 [5-fluorouracil],87
5,CN(C)CCNC(=O)c1cccn2c(=O)c3cc4ccccc4cc3nc12 [Bmh-21],95

# Same assay, conditions: 100 nM; 72 h
row,SMILES,cell viability [%]
1,O=C(c1c2ccccc2cc2ccccc12)N1CCC(N2CCC[C@@H](C(=O)N3CCOCC3)C2)CC1,98.2
2,c1ccc2c(c1)SCc1c-2[nH]c2ccccc12,67.2
3,CCC(CC#N)OC(=O)N[C@@H](C)c1cccc(NC(=O)Nc2ccc(-c3cnco3)c(OC)c2)c1 (stereo in doubt) [AVN-944],84.9
4,Oc1ncc(F)c(O)n1 [5-fluorouracil],90.3
5,CN(C)CCNC(=O)c1cccn2c(=O)c3cc4ccccc4cc3nc12 [Bmh-21],90.6

# Same assay, conditions: 1000 nM; 72 h
row,SMILES,cell viability [%]
1,O=C(c1c2ccccc2cc2ccccc12)N1CCC(N2CCC[C@@H](C(=O)N3CCOCC3)C2)CC1,56.4
2,c1ccc2c(c1)SCc1c-2[nH]c2ccccc12,4.19
3,CCC(CC#N)OC(=O)N[C@@H](C)c1cccc(NC(=O)Nc2ccc(-c3cnco3)c(OC)c2)c1 (stereo in doubt) [AVN-944],63.5
